The values that follow come from ChEMBL document CHEMBL1150232, “Microspinosamide, a new HIV-inhibitory cyclic depsipeptide from the marine sponge Sidonops microspinosa” (J Nat Prod, 2001).

≈ marks a conversion by molar mass, not a printed value.

The subject of test [1] is Human immunodeficiency virus 1. Put plainly: Antiviral activity against HIV1 infected in human CEM-SS cells assessed as inhibition of virus-induced cytopathic effect by XTT assay. Type of test: functional, organism-based. To be noted: Human immunodeficiency virus 1, CEM-SS.
For the next test, the system named is CEM-SS. Nature of the test: Cytotoxicity against human CEM-SS cells. The test is classed as cell-based.

Take `CCC(C)(C)[C@H](NC(=O)[C@H](NC(=O)[C@@H]1CCCN1C(=O)C(NC(=O)[C@@H](C)NC=O)C(O)c1ccc(Br)cc1)C(C)(C)C)C(=O)N[C@H](Cc1c[nH]c2ccccc12)C(=O)N[C@@H](CCCNC(=N)N)C(=O)N[C@H](CS(=O)(=O)O)C(=O)N[C@@H]1C(=O)N(C)[C@@H](CCC(N)=O)C(=O)N[C@H](C(C)C)C(=O)N2CCC[C@H]2C(=O)N[C@H](CC(=O)O)C(=O)O[C@@H]1C` (some centres not stated) [MICROSPINOSAMIDE]: the EC50 in test [1] was 0.2 µg/mL (≈ 0.116 µM). 3 µg/mL (≈ 1.74 µM) corresponded to half-maximal inhibition in the test on CEM-SS (IC50).
